Measured values taken from the supplement of paper PMC11451515.

Tested on: NOMO1
Assay: cell viability relative to DMSO control; higher = less cytotoxic
Details: 48 h
Summary of the method: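 Cells were incubated for 48 h at 37°C before CellTiter-Glo One luminescence was read. The cells were NOMO1 or SEM (500 cells/well) or P12-Ichikawa (1000 cells/well) leukemia cells, adapted for at least four passages in each medium and seeded in 1536-well plates (5 μl). Dosing used library compounds in DMSO applied by pin over 11 threefold points, 47 μM to 0.79 nM. Viability is the per-plate percentage of DMSO wells, with cell-free wells as background.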

[1] = HPLM + 10% dialyzed FBS, 0.000781 µM
[2] = HPLM + 10% dialyzed FBS, 0.00234 µM
[3] = HPLM + 10% dialyzed FBS, 0.00702 µM
[4] = HPLM + 10% dialyzed FBS, 0.0211 µM
[5] = HPLM + 10% dialyzed FBS, 0.0632 µM
[6] = HPLM + 10% dialyzed FBS, 0.19 µM
[7] = HPLM + 10% dialyzed FBS, 0.569 µM
[8] = HPLM + 10% dialyzed FBS, 1.71 µM
[9] = HPLM + 10% dialyzed FBS, 5.12 µM
[10] = HPLM + 10% dialyzed FBS, 15.4 µM
[11] = HPLM + 10% dialyzed FBS, 46.1 µM
[12] = RPMI 5 mM glucose + 10% FBS, 0.000781 µM
[13] = RPMI 5 mM glucose + 10% FBS, 0.00234 µM
[14] = RPMI 5 mM glucose + 10% FBS, 0.00702 µM
[15] = RPMI 5 mM glucose + 10% FBS, 0.0211 µM
[16] = RPMI 5 mM glucose + 10% FBS, 0.0632 µM
[17] = RPMI 5 mM glucose + 10% FBS, 0.19 µM
[18] = RPMI 5 mM glucose + 10% FBS, 0.569 µM
[19] = RPMI 5 mM glucose + 10% FBS, 1.71 µM
[20] = RPMI 5 mM glucose + 10% FBS, 5.12 µM
[21] = RPMI 5 mM glucose + 10% FBS, 15.4 µM
[22] = RPMI 5 mM glucose + 10% FBS, 46.1 µM
[23] = RPMI 5 mM glucose + 10% dialyzed FBS, 0.000781 µM
[24] = RPMI 5 mM glucose + 10% dialyzed FBS, 0.00234 µM
[25] = RPMI 5 mM glucose + 10% dialyzed FBS, 0.00702 µM
[26] = RPMI 5 mM glucose + 10% dialyzed FBS, 0.0211 µM
[27] = RPMI 5 mM glucose + 10% dialyzed FBS, 0.0632 µM
[28] = RPMI 5 mM glucose + 10% dialyzed FBS, 0.19 µM
[29] = RPMI 5 mM glucose + 10% dialyzed FBS, 0.569 µM
[30] = RPMI 5 mM glucose + 10% dialyzed FBS, 1.71 µM
[31] = RPMI 5 mM glucose + 10% dialyzed FBS, 5.12 µM
[32] = RPMI 5 mM glucose + 10% dialyzed FBS, 15.4 µM
[33] = RPMI 5 mM glucose + 10% dialyzed FBS, 46.1 µM

Structure (SMILES)	cell viability [1] [%]	cell viability [2] [%]	cell viability [3] [%]	cell viability [4] [%]	cell viability [5] [%]	cell viability [6] [%]	cell viability [7] [%]	cell viability [8] [%]	cell viability [9] [%]	cell viability [10] [%]	cell viability [11] [%]	cell viability [12] [%]	cell viability [13] [%]	cell viability [14] [%]	cell viability [15] [%]	cell viability [16] [%]	cell viability [17] [%]	cell viability [18] [%]	cell viability [19] [%]	cell viability [20] [%]	cell viability [21] [%]	cell viability [22] [%]	cell viability [23] [%]	cell viability [24] [%]	cell viability [25] [%]	cell viability [26] [%]	cell viability [27] [%]	cell viability [28] [%]	cell viability [29] [%]	cell viability [30] [%]	cell viability [31] [%]	cell viability [32] [%]	cell viability [33] [%]
CC1(C)C(=O)N(CCN2CCC(C(=O)c3ccc(F)cc3)CC2)c2ccccc21	117	115	120	141	151	138	162	128	119	129	88.7	120	124	120	131	141	142	128	133	117	122	82.1	116	120	134	136	134	134	148	132	120	113	84.1
CC1=CC=CC=C1CN2C(=O)C/3=C(/CCN(CC4=CC=CC=C4)C3)N\5CC\N=C25												109	118	121	124	134	113	116	119	59	20.1	21.4	132	118	122	126	120	122	133	86.6	69.9	25.9	23.6
C[S+](=O)([O-])N(Cc1ccco1)CC(O)Cn1c2ccccc2c2ccccc21 (stereo unspecified)	95.3	99	102	105	86.5	91.2	93.9	82.8	83.6	73.6	35.2	88.4	91.6	91.4	92.2	94.3	94	90	80.7	79.6	86.3	52.8	97.9	89.2	93.3	90.3	93.3	90.1	97.8	85.1	80.8	77.9	50.8
COc1cc2c(Oc3ccc(NC(=O)C4(C(=O)Nc5ccc(F)cc5)CC4)cc3F)ccnc2cc1OCCCN1CCOCC1	74.7	83.2	79.3	92	89.5	83.1	84.3	61	63.4	28.5	4.74	80.8	86.3	91.7	94.6	85.8	85.1	86.8	72.8	41	36.9	4.62	81.2	75.3	84.8	93.8	85.6	72.1	80.9	46.5	43.3	29.6	5.96
CCCCNc1cc(C(=O)O)cc([S+](N)(=O)[O-])c1Oc1ccccc1												118	113	128	127	129	115	124	120	136	146	135											
CN(C)C(=O)c1ccc([S+](=O)([O-])c2ccc(NC(=O)[C@@](C)(O)C(F)(F)F)c(Cl)c2)cc1	104	104	114	123	95.9	128	126	105	91.3	33	10.2	104	109	102	105	114	101	112	99.4	105	38.7	13.5	95.9	109	116	118	108	104	104	91.2	99.8	89.7	60.4
CC(C)Oc1cc(Nc2nc(N[C@@H](C)c3ccc(F)cn3)ncc2Cl)n[nH]1	104	113	120	114	99	96.8	127	94.1	101	108	92.4	107	100	111	110	104	104	116	53.7	60.4	68	72.6	101	109	115	100	134	110	110	61.6	57.6	68.9	85.9
C1CCC(C(CC2CCCCN2)C2CCCCC2)CC1 (stereo unspecified)	121	111	127	111	140	127	132	150	131	118	5.65	108	116	133	144	116	122	132	115	131	121	6.9	110	108	124	107	114	130	114	131	116	98.1	6.09
